Each structure is given as a SMILES string.

This assay has as its target S. aureus GyrB ATPase (Staphylococcus aureus, UniProt P0A0K8). Briefly: S. aureus (SAU) GyrB ATPase inhibition, malachite green phosphate detection (E. coli GyrA + S. aureus GyrB). The note with it: compound concentration of 1.0 μM unless otherwise noted; average value where assay was carried out more than once; read-out: S. aureus (SAU) GyrB ATPase % Inhibition. The class given is biochemical. The procedure: Compounds were tested for inhibition of GyrB ATPase activity using an ammonium molybdate/malachite green-based phosphate detection assay (Lanzetta, P. A., L. J. Alvarez, P. S. Reinach, and O. A. Candia, 1979, 100: 95-97). Assays were performed in multiwell plates in 100 μl reactions containing: 50 mM Hepes buffer pH 7.5, 75 mM ammonium acetate, 8.0 mM magnesium chloride, 1.0 mM ethylenediaminetetraacetic acid, 5% glycerol, 2 mM 1,4-Dithio-DL-threitol, 400 nM bovine serum albumin, 5 μg/ml sheared salmon sperm DNA, 1.25 nM E. coli GyrA, 1.25 nM S. aureus GyrB, 500 μM ATP, and compound in dimethylsulfoxide. Reactions were quenched with 150 μl of ammonium molybdate/malachite green detection reagent containing 1.2 mM malachite green hydrochloride, 8.5 mM ammonium molybdate tetrahydrate, and 1 M hydrochloric acid. Plates were read in an absorbance plate reader at 650 nm and percent inhibition values were calculated using dimethylsulfoxide (2%)-containing reactions as 0% inhibition and novobiocin-containing (2 μM) reactions as 100% inhibition controls. Compound potency was based on IC50 measurements determined from reactions performed in the presence of 10 different compound concentrations.

Sequence of S. aureus GyrB ATPase (P0A0K8 whole entry): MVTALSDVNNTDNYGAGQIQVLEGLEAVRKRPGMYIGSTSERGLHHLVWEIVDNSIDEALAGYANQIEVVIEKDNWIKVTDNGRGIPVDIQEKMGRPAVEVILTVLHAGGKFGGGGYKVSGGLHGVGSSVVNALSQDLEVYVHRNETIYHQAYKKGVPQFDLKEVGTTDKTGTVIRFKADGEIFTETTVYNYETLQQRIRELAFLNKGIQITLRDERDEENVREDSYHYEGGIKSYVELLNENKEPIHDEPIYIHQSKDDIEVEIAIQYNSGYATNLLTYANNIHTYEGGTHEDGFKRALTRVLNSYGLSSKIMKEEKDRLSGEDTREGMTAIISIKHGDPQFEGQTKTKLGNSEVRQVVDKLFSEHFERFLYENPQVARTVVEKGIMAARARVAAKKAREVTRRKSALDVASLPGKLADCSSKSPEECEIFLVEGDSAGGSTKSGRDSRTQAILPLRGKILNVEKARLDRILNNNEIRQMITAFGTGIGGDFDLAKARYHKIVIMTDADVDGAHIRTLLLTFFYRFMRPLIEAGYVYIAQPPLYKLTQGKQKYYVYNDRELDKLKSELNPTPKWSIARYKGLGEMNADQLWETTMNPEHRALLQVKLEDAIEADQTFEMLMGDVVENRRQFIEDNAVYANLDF
Sequence of S. aureus GyrB ATPase (P0AES4 whole entry, further chain): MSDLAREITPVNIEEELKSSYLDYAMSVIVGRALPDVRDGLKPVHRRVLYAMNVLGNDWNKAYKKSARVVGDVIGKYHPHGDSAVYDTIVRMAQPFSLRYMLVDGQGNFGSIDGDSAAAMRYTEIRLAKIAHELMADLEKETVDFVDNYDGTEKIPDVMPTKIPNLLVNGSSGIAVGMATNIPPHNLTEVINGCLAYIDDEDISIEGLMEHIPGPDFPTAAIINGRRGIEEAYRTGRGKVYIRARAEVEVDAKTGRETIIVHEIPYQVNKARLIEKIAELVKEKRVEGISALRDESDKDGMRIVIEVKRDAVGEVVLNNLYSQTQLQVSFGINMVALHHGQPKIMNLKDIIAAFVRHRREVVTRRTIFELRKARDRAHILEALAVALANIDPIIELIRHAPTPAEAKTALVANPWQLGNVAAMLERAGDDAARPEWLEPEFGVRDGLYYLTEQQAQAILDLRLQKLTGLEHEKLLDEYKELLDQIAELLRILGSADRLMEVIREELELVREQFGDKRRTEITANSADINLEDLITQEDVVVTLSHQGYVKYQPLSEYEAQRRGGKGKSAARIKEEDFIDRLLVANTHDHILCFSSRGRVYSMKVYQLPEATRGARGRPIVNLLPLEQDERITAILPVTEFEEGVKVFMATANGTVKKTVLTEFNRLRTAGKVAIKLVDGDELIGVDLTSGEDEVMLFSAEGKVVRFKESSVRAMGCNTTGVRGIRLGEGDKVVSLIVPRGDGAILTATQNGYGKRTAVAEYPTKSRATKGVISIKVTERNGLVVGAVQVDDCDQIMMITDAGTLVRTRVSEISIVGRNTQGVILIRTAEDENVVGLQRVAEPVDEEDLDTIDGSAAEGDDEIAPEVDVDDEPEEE

`CCNC(=O)Nc1cc(-c2nc(C(F)(F)F)c(CNC3CCCCC3)s2)c(-c2cncc(-c3nnc(C)o3)c2)cn1` [Example 56, 1-(4-(5-((cyclohexylamino)methyl)-4-(trifluoromethyl)thiazol-2-yl)-5′-(5-methyl-1,3,4-oxadiazol-2-yl)-3,3′-bipyridin-6-yl)-3-ethylurea]: the inhibition at 1 µM turned out to be 96%.
Next, `CCNC(=O)Nc1cc(-c2nc(C(F)(F)F)c(CNC3CCCC3)s2)c(-c2cncc(-c3nnc(C)o3)c2)cn1` [Example 57, 1-(4-(5-((cyclopentylamino)methyl)-4-(trifluoromethyl)thiazol-2-yl)-5′-(5-methyl-1,3,4-oxadiazol-2-yl)-3,3′-bipyridin-6-yl)-3-ethylurea]: 96%; `CCNC(=O)Nc1cc(-c2nc(C(F)(F)F)c(CNC3CCOCC3)s2)c(-c2cncc(-c3nnc(C)o3)c2)cn1` [Example 58, 1-ethyl-3-(5′-(5-methyl-1,3,4-oxadiazol-2-yl)-4-(5-((tetrahydro-2H-pyran-4-ylamino)methyl)-4-(trifluoromethyl)thiazol-2-yl)-3,3′-bipyridin-6-yl)urea]: 97%.
Turning to `CCNC(=O)Nc1cc(-c2nc(C(F)(F)F)c(C(=O)NCCOC)s2)c(-c2cncc(-c3n[nH]c(=O)o3)c2)cn1` [Example 59, 2-(6-(3-ethylureido)-5′-(5-oxo-4,5-dihydro-1,3,4-oxadiazol-2-yl)-3,3′-bipyridin-4-yl)-N-(2-methoxyethyl)-4-(trifluoromethyl)thiazole-5-carboxamide], the inhibition at 1 µM worked out at 98%.
As to `CCNC(=O)Nc1cc(-c2nc(C(F)(F)F)c(C(=O)NCCOC)s2)c(-c2cncc(-c3nnc(C)o3)c2)cn1` [Example 60, 2-(6-(3-ethylureido)-5′-(5-methyl-1,3,4-oxadiazol-2-yl)-3,3′-bipyridin-4-yl)-N-(2-methoxyethyl)-4-(trifluoromethyl)thiazole-5-carboxamide], the inhibition at 1 µM amounted to 92%.
With `CCNC(=O)Nc1cc(-c2nc(C(F)(F)F)c(C(=O)NCCN3CCOCC3)s2)c(-c2cncc(-c3n[nH]c(=O)o3)c2)cn1` [Example 61, 2-(6-(3-ethylureido)-5′-(5-oxo-4,5-dihydro-1,3,4-oxadiazol-2-yl)-3,3′-bipyridin-4-yl)-N-(2-morpholinoethyl)-4-(trifluoromethyl)thiazole-5-carboxamide], the inhibition at 1 µM came out at 95%.
On to `CCNC(=O)Nc1cc(-c2nc(C(F)(F)F)c(C(=O)NCCN3CCOCC3)s2)c(-c2cncc(-c3nnc(C)o3)c2)cn1` [Example 62, 2-(6-(3-ethylureido)-5′-(5-methyl-1,3,4-oxadiazol-2-yl)-3,3′-bipyridin-4-yl)-N-(2-morpholinoethyl)-4-(trifluoromethyl)thiazole-5-carboxamide], for which the inhibition at 1 µM was determined as 86%.
With `CCNC(=O)Nc1cc(-c2nc(C(F)(F)F)c(C(=O)NCCN3CCN(C)CC3)s2)c(-c2cncc(-c3n[nH]c(=O)o3)c2)cn1` [Example 63] the figure was 96%; with `CCNC(=O)Nc1cc(-c2nc(C(F)(F)F)c(C(=O)NCCN3CCN(C)CC3)s2)c(-c2cncc(-c3nnc(C)o3)c2)cn1` [Example 64, 2-(6-(3-ethylureido)-5′-(5-methyl-1,3,4-oxadiazol-2-yl)-3,3′-bipyridin-4-yl)-N-(2-(4-methylpiperazin-1-yl)ethyl)-4-(trifluoromethyl)thiazole-5-carboxamide], 98%.
With `CCNC(=O)Nc1cc(-c2nc(C(F)(F)F)c(C(=O)NC3CC3)s2)c(-c2cncc(-c3n[nH]c(=O)o3)c2)cn1` [Example 65] the figure was 94%; with `CCNC(=O)Nc1cc(-c2nc(C(F)(F)F)c(C(=O)NC3CC3)s2)c(-c2cncc(-c3nnc(C)o3)c2)cn1` [Example 66, N-cyclopropyl-2-(6-(3-ethylureido)-5′-(5-methyl-1,3,4-oxadiazol-2-yl)-3,3′-bipyridin-4-yl)-4-(trifluoromethyl)thiazole-5-carboxamide], 93%; with `CCNC(=O)Nc1cc(-c2nc(C(F)(F)F)c(C(=O)NC3CCCC3)s2)c(-c2cncc(-c3n[nH]c(=O)o3)c2)cn1` [Example 67, N-cyclopentyl-2-(6-(3-ethylureido)-5′-(5-oxo-4,5-dihydro-1,3,4-oxadiazol-2-yl)-3,3′-bipyridin-4-yl)-4-(trifluoromethyl)thiazole-5-carboxamide], 93%.
For the compound `CCNC(=O)Nc1cc(-c2nc(C(F)(F)F)c(C(=O)NC3CCCC3)s2)c(-c2cncc(-c3nnc(C)o3)c2)cn1` [Example 68, N-cyclopentyl-2-(6-(3-ethylureido)-5′-(5-methyl-1,3,4-oxadiazol-2-yl)-3,3′-bipyridin-4-yl)-4-(trifluoromethyl)thiazole-5-carboxamide], the inhibition at 1 µM was 96%.
For `CCNC(=O)Nc1cc(-c2nc(C(F)(F)F)c(C(=O)NC3CCCCC3)s2)c(-c2cncc(-c3n[nH]c(=O)o3)c2)cn1` [Example 69, N-cyclohexyl-2-(6-(3-ethylureido)-5′-(5-oxo-4,5-dihydro-1,3,4-oxadiazol-2-yl)-3,3′-bipyridin-4-yl)-4-(trifluoromethyl)thiazole-5-carboxamide], the inhibition at 1 µM is 91%.
With `CCNC(=O)Nc1cc(-c2nc(C(F)(F)F)c(C(=O)NC3CCCCC3)s2)c(-c2cncc(-c3nnc(C)o3)c2)cn1` [Example 70, N-cyclohexyl-2-(6-(3-ethylureido)-5′-(5-methyl-1,3,4-oxadiazol-2-yl)-3,3′-bipyridin-4-yl)-4-(trifluoromethyl)thiazole-5-carboxamide] the figure was 96%; with `CCNC(=O)Nc1cc(-c2nc(C(F)(F)F)cs2)c(-c2cc(-c3n[nH]c(=O)o3)cnc2CC)cn1` [Example 71, 1-ethyl-3-(2′-ethyl-5′-(5-hydroxy-1,3,4-oxadiazol-2-yl)-4-(4-(trifluoromethyl)thiazol-2-yl)-3,3′-bipyridin-6-yl)urea], 93%.
Take `CCNC(=O)Nc1cc(-c2nc(-c3ccccc3)cs2)c(-c2cc(-c3n[nH]c(=O)o3)cnc2CC)cn1` [Example 72, 1-ethyl-3-(2′-ethyl-5′-(5-hydroxy-1,3,4-oxadiazol-2-yl)-4-(4-phenylthiazol-2-yl)-3,3′-bipyridin-6-yl)urea]: the inhibition at 1 µM came out at 95%.
For the compound `CCNC(=O)Nc1cc(-c2nc(C(F)(F)F)cs2)c(-c2cc(-c3nnc(C)o3)cnc2CC)cn1` [Example 73, 1-ethyl-3-(2′-ethyl-5′-(5-methyl-1,3,4-oxadiazol-2-yl)-4-(4-(trifluoromethyl)thiazol-2-yl)-3,3′-bipyridin-6-yl)urea], the inhibition at 1 µM amounted to 97%.
Consider `CCNC(=O)Nc1cc(-c2nc(-c3ccccc3)cs2)c(-c2cc(-c3nnc(C)o3)cnc2CC)cn1` [Example 74], for which the inhibition at 1 µM is 94%.
For the compound `CCNC(=O)Nc1cc(-c2nc(C(F)(F)F)cs2)c(-c2cc(OCC)nc(-c3n[nH]c(=O)o3)c2)cn1` [Example 75, 1-(2′-ethoxy-6′-(5-oxo-4,5-dihydro-1,3,4-oxadiazol-2-yl)-4-(4-(trifluoromethyl)thiazol-2-yl)-3,4′-bipyridin-6-yl)-3-ethylurea], the inhibition at 1 µM came out at 99%.
Regarding `CCNC(=O)Nc1cc(-c2nc(C(F)(F)F)cs2)c(-c2cc(OCC)nc(-c3nnc(C)o3)c2)cn1` [Example 76, 1-(2′-ethoxy-6′-(5-methyl-1,3,4-oxadiazol-2-yl)-4-(4-(trifluoromethyl)thiazol-2-yl)-3,4′-bipyridin-6-yl)-3-ethylurea], the inhibition at 1 µM turned out to be 100%.
Take `CCNC(=O)Nc1cc(-c2nc(-c3ccccc3)cs2)c(-c2cc(OCC)nc(-c3n[nH]c(=O)o3)c2)cn1` [Example 77, 1-(2′-ethoxy-6′-(5-oxo-4,5-dihydro-1,3,4-oxadiazol-2-yl)-4-(4-phenylthiazol-2-yl)-3,4′-bipyridin-6-yl)-3-ethylurea]: the inhibition at 1 µM was 97%.
Next, `CCNC(=O)Nc1cc(-c2nc(-c3ccccc3)cs2)c(-c2cc(OCC)nc(-c3nnc(C)o3)c2)cn1` [Example 78, 1-(2′-ethoxy-6′-(5-methyl-1,3,4-oxadiazol-2-yl)-4-(4-phenylthiazol-2-yl)-3,4′-bipyridin-6-yl)-3-ethylurea]: 99%.
For the compound `CCNC(=O)Nc1cc(-c2nc(C(F)(F)F)cs2)c(-c2cc(OC(C)C)nc(-c3n[nH]c(=O)o3)c2)cn1` [Example 79, 1-ethyl-3-(2′-isopropoxy-6′-(5-oxo-4,5-dihydro-1,3,4-oxadiazol-2-yl)-4-(4-(trifluoromethyl)thiazol-2-yl)-3,4′-bipyridin-6-yl)urea], the inhibition at 1 µM is 95%.
For `CCNC(=O)Nc1cc(-c2nc(C(F)(F)F)cs2)c(-c2cc(OC(C)C)nc(-c3nnc(C)o3)c2)cn1` [Example 80, 1-ethyl-3-(2′-isopropoxy-6′-(5-methyl-1,3,4-oxadiazol-2-yl)-4-(4-(trifluoromethyl)thiazol-2-yl)-3,4′-bipyridin-6-yl)urea], the inhibition at 1 µM was found to be 96%.
In the case of `CCNC(=O)Nc1cc(-c2nc(-c3ccccc3)cs2)c(-c2cc(OC(C)C)nc(-c3n[nH]c(=O)o3)c2)cn1` [Example 81, 1-ethyl-3-(2′-isopropoxy-6′-(5-oxo-4,5-dihydro-1,3,4-oxadiazol-2-yl)-4-(4-phenylthiazol-2-yl)-3,4′-bipyridin-6-yl)urea], the inhibition at 1 µM is 94%.

By inhibition is commonly meant how much of the control response was suppressed.

Values taken from US20120101100A1 (priority 2008, published 2012).
